Drawing on US11352339B2 (MISSION THERAPEUTICS LIMITED, priority 2016, dated 2022), this text covers IC50 for 45 molecules.

USP30, sequence (Q70CQ3 57-517): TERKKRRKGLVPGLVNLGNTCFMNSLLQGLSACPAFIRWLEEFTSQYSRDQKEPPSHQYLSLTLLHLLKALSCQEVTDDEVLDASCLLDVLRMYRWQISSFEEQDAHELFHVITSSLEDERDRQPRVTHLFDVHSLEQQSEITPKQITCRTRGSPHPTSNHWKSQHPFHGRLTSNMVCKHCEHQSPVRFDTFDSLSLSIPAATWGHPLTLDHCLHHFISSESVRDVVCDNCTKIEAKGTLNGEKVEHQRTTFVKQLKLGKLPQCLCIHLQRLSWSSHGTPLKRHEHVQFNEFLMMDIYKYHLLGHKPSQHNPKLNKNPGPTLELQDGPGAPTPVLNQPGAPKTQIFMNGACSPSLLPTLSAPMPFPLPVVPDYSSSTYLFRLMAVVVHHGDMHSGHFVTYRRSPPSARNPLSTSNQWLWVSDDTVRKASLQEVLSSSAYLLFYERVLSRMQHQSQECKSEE

In this test the target is USP30 (Homo sapiens (Human), UniProt Q70CQ3). Nature of the test: USP30 Biochemical IC50 Assay. Conditions: fluorescence polarisation, TAMRA labelled peptide linked to ubiquitin; 30 min pre-incubation, read after 2 h; read-out: IC50 range. The procedure:
Reactions were performed in duplicate in black 384 well plates (small volume, Greiner 784076) in a final reaction volume of 21 μl. Either 1 μl of 50% DMSO or diluted compound was added to the plate. […] Enzyme and compound were incubated for 30 min at room temp. Reactions were initiated by the addition of 50 nM of TAMRA labelled peptide linked to ubiquitin via an iso-peptide bond as fluorescence polarisation substrate. Reactions were read immediately after addition of substrate and following a 2 h incubation at room temperature. Readings were performed on a Pherastar Plus (BMG Labtech). λ Excitation 540 nm; λ Emission 590 nm.
(In fluorescence polarisation assays a small probe gives low polarisation when free and higher when bound to something large.)
With `N#Cc1ccc2ccc(-c3nc([C@@H]4CCCN4C#N)no3)cc2n1` (stereo in doubt) [Example 179, 7-(3-(1-Cyanopyrrolidin-2-yl)-1,2,4-oxadiazol-5-yl)quinoline-2-carbonitrile], the IC50 was 1000 to 10000 nM.

For `N#Cc1cccc(-c2cc(C3CCN(C#N)C3)[nH]n2)c1` (stereo not drawn) [Example 1, 3-(3-(3-Cyanophenyl)-1H-pyrazol-5-yl)pyrrolidine-1-carbonitrile], the IC50 was in the range of 100 to 1000 nM.

`N#Cc1ccc(-c2cc(C3CCN(C#N)C3)[nH]n2)cc1` (stereo not drawn) [Example 2, 3-(3-(4-Cyanophenyl)-1H-pyrazol-5-yl)pyrrolidine-1-carbonitrile]: the IC50 is 1000 to 10000 nM.

With `CNC(=O)c1ccc(-c2cc(C3CCN(C#N)C3)[nH]n2)cn1` (stereo not drawn) [Example 3, 5-(5-(1-Cyanopyrrolidin-3-yl)-1H-pyrazol-3-yl)-N-methylpicolinamide], the IC50 fell in the range of 1000 to 10000 nM.

As to `N#CN1CCC(c2cc(-c3ccc(C(N)=O)cc3)n[nH]2)C1` (stereo not drawn) [Example 4, 4-(5-(1-Cyanopyrrolidin-3-yl)-1H-pyrazol-3-yl)benzamide], the IC50 lay in the range of 1000 to 10000 nM.

Turning to `CN1CCN(c2ccc(-c3cc(C4CCN(C#N)C4)[nH]n3)cc2)CC1` (stereo not drawn) [Example 5, 3-(3-(4-(4-Methylpiperazin-1-yl)phenyl)-1H-pyrazol-5-yl)pyrrolidine-1-carbonitrile], the IC50 lay within 100 to 1000 nM.

As to `N#CN1CCC(c2cc(-c3cccc(C(N)=O)c3)n[nH]2)C1` (stereo not drawn) [Example 6, 3-(5-(1-Cyanopyrrolidin-3-yl)-1H-pyrazol-3-yl)benzamide], the IC50 was in the range of 1000 to 10000 nM.

Turning to `CC(=O)Nc1cccc(-c2cc(C3CCN(C#N)C3)[nH]n2)c1` (stereo not drawn) [Example 7, N-(3-(5-(1-Cyanopyrrolidin-3-yl)-1H-pyrazol-3-yl)phenyl)acetamide], the IC50 was in the range of 1000 to 10000 nM.

Consider `CN(C)C(=O)c1cccc(-c2cc(C3CCN(C#N)C3)[nH]n2)c1` (stereo not drawn) [Example 8, 3-(5-(1-Cyanopyrrolidin-3-yl)-1H-pyrazol-3-yl)-N,N-dimethylbenzamide], for which the IC50 was 100 to 1000 nM.

`CC(=O)Nc1ccc(-c2cc(C3CCN(C#N)C3)[nH]n2)cc1` (stereo not drawn) [Example 9, N-(4-(5-(1-Cyanopyrrolidin-3-yl)-1H-pyrazol-3-yl)phenyl)acetamide]: the IC50 is 1000 to 10000 nM.

`Cc1cc(-c2cc(C3CCN(C#N)C3)[nH]n2)ccn1` (stereo not drawn) [Example 11, 3-(3-(2-Methylpyridin-4-yl)-1H-pyrazol-5-yl)pyrrolidine-1-carbonitrile]: the IC50 is 1000 to 10000 nM.

As to `N#CN1CCC(c2cc(-c3cccc(N4CCCCC4)c3)n[nH]2)C1` (stereo not drawn) [Example 12, 3-(3-(3-(Piperidin-1-yl)phenyl)-1H-pyrazol-5-yl)pyrrolidine-1-carbonitrile], the IC50 lay within 100 to 1000 nM.

Turning to `N#CN1CCC(c2cc(-c3cccc(-c4ccccc4)c3)n[nH]2)C1` (stereo not drawn) [Example 14, 3-(3-([1,1′-Biphenyl]-3-yl)-1H-pyrazol-5-yl)pyrrolidine-1-carbonitrile], the half-inhibitory concentration (IC50) fell in the range of 100 to 1000 nM.

`N#CN1CCC(c2[nH]nc(-c3cccc(-c4ccccc4)c3)c2F)C1` (stereo not drawn) [Example 15, 3-(3-([1,1′-Biphenyl]-3-yl)-4-fluoro-1H-pyrazol-5-yl)pyrrolidine-1-carbonitrile]: the IC50 was below 100 nM.

Turning to `N#CN1CCC(c2cc(-c3ccc4ccccc4c3)n[nH]2)C1` (stereo not drawn) [Example 18, 3-(3-(Naphthalen-2-yl)-1H-pyrazol-5-yl)pyrrolidine-1-carbonitrile], the IC50 fell in the range of 100 to 1000 nM.

Consider `C[C@H]1CN(C#N)C[C@@H]1c1[nH]nc(-c2cccc(-c3ccccc3)c2)c1F` [Example 22], for which the IC50 was below 100 nM.

Turning to `C[C@H]1CN(C#N)C[C@@H]1c1[nH]nc(-c2cccc(-c3ccccc3)c2)c1F` [Example 23], the IC50 fell in the range of 100 to 1000 nM.

Turning to `C[C@@H]1CN(C#N)C[C@H]1c1cc(-c2cccc(-c3ccccc3)c2)nn1C` [Example 24], the IC50 lay in the range of 100 to 1000 nM.

`C[C@@H]1CN(C#N)C[C@H]1c1cc(-c2cccc(-c3ccccc3)c2)n(C)n1` [Example 25]: the IC50 is 100 to 1000 nM.

As for `N#CN1CCC(c2cc(-c3cccc(-c4cccnc4)c3)n[nH]2)C1` (stereo not drawn) [Example 26, 3-(3-(3-(Pyridin-3-yl)phenyl)-1H-pyrazol-5-yl)pyrrolidine-1-carbonitrile], the IC50 fell in the range of 100 to 1000 nM.

Take `CC1CC(c2cc(-c3cccc(-c4ccccc4)c3)n[nH]2)CN1C#N` (stereo not drawn) [Example 27, 4-(3-([1,1′-Biphenyl]-3-yl)-1H-pyrazol-5-yl)-2-methylpyrrolidine-1-carbonitrile]: the IC50 was in the range of 1000 to 10000 nM.

Take `N#CN1CCC(c2cc(-c3cccc(-c4ccncc4)c3)n[nH]2)C1` (stereo not drawn) [Example 28, 3-(3-(3-(Pyridin-4-yl)phenyl)-1H-pyrazol-5-yl)pyrrolidine-1-carbonitrile]: the IC50 fell in the range of 100 to 1000 nM.

Turning to `N#CN1CCC(c2cc(-c3cccc(-c4ccc(Cl)cc4)c3)n[nH]2)C1` (stereo not drawn) [Example 29, 3-(3-(4′-Chloro-[1,1′-biphenyl]-3-yl)-1H-pyrazol-5-yl)pyrrolidine-1-carbonitrile], the IC50 was 100 to 1000 nM.

For the molecule `COc1ccc(-c2cccc(-c3cc(C4CCN(C#N)C4)[nH]n3)c2)cc1` (stereo not drawn) [Example 30, 3-(3-(4′-Methoxy-[1,1′-biphenyl]-3-yl)-1H-pyrazol-5-yl)pyrrolidine-1-carbonitrile], the IC50 lay within 100 to 1000 nM.

As to `Cn1cc(-c2cccc(-c3cc(C4CCN(C#N)C4)n[nH]3)c2)cn1` (stereo not drawn) [Example 31, 3-(5-(3-(1-Methyl-1H-pyrazol-4-yl)phenyl)-1H-pyrazol-3-yl)pyrrolidine-1-carbonitrile], the half-maximal inhibitory concentration (IC50) lay within 1000 to 10000 nM.

For `N#CN1CC[C@@H](c2cc(-c3cccc(-c4cnoc4)c3)[nH]n2)C1` [Example 32, 3-(5-(3-(Isoxazol-4-yl)phenyl)-1H-pyrazol-3-yl)pyrrolidine-1-carbonitrile], the IC50 lay within 1000 to 10000 nM.

Consider `N#CN1CCC(c2cc(-c3cccc(-c4cnoc4)c3)[nH]n2)C1` (stereo not drawn) [Example 33, 3-(5-(3-(Isoxazol-4-yl)phenyl)-1H-pyrazol-3-yl)pyrrolidine-1-carbonitrile], for which the IC50 is 100 to 1000 nM.

For `Cn1cnc(-c2cccc(-c3cc(C4CCN(C#N)C4)n[nH]3)c2)c1` (stereo not drawn) [Example 34, 3-(5-(3-(1-Methyl-1H-imidazol-4-yl)phenyl)-1H-pyrazol-3-yl)pyrrolidine-1-carbonitrile], the half-maximal inhibitory concentration (IC50) fell in the range of 1000 to 10000 nM.

Take `N#CN1CCC(c2cc(-c3ccc(-c4ccccc4)cc3)[nH]n2)C1` (stereo not drawn) [Example 35, 3-(5-([1,1′-Biphenyl]-4-yl)-1H-pyrazol-3-yl)pyrrolidine-1-carbonitrile]: the IC50 lay in the range of 100 to 1000 nM.

As to `N#CN1CCC(c2cc(-c3cncc(-c4ccccc4)c3)[nH]n2)C1` (stereo not drawn) [Example 36, 3-(5-(5-Phenylpyridin-3-yl)-1H-pyrazol-3-yl)pyrrolidine-1-carbonitrile], the IC50 lay within 100 to 1000 nM.

In the case of `N#CN1CCC(c2cc(-c3cccc(-c4ccccc4)n3)[nH]n2)C1` (stereo not drawn) [Example 37, 3-(5-(6-Phenylpyridin-2-yl)-1H-pyrazol-3-yl)pyrrolidine-1-carbonitrile], the IC50 was 100 to 1000 nM.

For the molecule `N#CN1CCC(c2cc(-c3ccnc(-c4ccccc4)c3)[nH]n2)C1` (stereo not drawn) [Example 38, 3-(5-(2-Phenylpyridin-4-yl)-1H-pyrazol-3-yl)pyrrolidine-1-carbonitrile], the IC50 lay within 100 to 1000 nM.

As for `N#CN1CCC(c2cc(-c3ccc(-c4ccccc4)nc3)n[nH]2)C1` (stereo not drawn) [Example 40], the IC50 lay within 100 to 1000 nM.

Turning to `N#CN1CCC(c2cc(-c3ccnc(-c4cccnc4)c3)n[nH]2)C1` (stereo not drawn) [Example 47, 3-(3-([2,3′-Bipyridin]-4-yl)-1H-pyrazol-5-yl)pyrrolidine-1-carbonitrile], the IC50 is 100 to 1000 nM.

With `N#CN1CCC(c2cc(NC(=O)c3ccccc3)n[nH]2)C1` (stereo not drawn) [Example 50, N-(3-(1-Cyanopyrrolidin-3-yl)-1H-pyrazol-5-yl)benzamide], the IC50 was in the range of 100 to 1000 nM.

In the case of `N#CN1CCC(c2cc(NC(=O)Cc3ccccc3)n[nH]2)C1` (stereo not drawn) [Example 51], the IC50 lay within 100 to 1000 nM.

As to `N#CN1CCC(c2noc(-c3ccc(-c4ccccc4)[nH]c3=O)n2)C1` (stereo not drawn) [Example 52, 3-(5-(2-Oxo-6-phenyl-1,2-dihydropyridin-3-yl)-1,2,4-oxadiazol-3-yl)pyrrolidine-1-carbonitrile], the IC50 was 1000 to 10000 nM.

On to `N#CN1CCC(c2noc(-c3cc(-c4ccccc4)nc4ccccc34)n2)C1` (stereo not drawn) [Example 53, 3-(5-(2-Phenylquinolin-4-yl)-1,2,4-oxadiazol-3-yl)pyrrolidine-1-carbonitrile], for which the IC50 was 100 to 1000 nM.

Take `N#CN1CCC(c2noc(-c3ccc4ncsc4c3)n2)C1` (stereo not drawn) [Example 54, 3-(5-(Benzo[d]thiazol-6-yl)-1,2,4-oxadiazol-3-yl)pyrrolidine-1-carbonitrile]: the IC50 lay in the range of 100 to 1000 nM.

Turning to `N#CN1CCC(c2noc(-c3cccc(-c4ccccc4)c3)n2)C1` (stereo not drawn) [Example 55], the IC50 was below 100 nM.

As to `Cc1ccc2cc(-c3nc(C4CCN(C#N)C4)no3)ccc2n1` (stereo not drawn) [Example 56, 3-(5-(2-Methylquinolin-6-yl)-1,2,4-oxadiazol-3-yl)pyrrolidine-1-carbonitrile], the IC50 was 1000 to 10000 nM.

Turning to `N#CN1CCC(c2noc(-c3cc(Cl)cc(OC(F)(F)F)c3)n2)C1` (stereo not drawn) [Example 57, 3-(5-(3-Chloro-5-(trifluoromethoxy)phenyl)-1,2,4-oxadiazol-3-yl)pyrrolidine-1-carbonitrile], the IC50 is 100 to 1000 nM.

Consider `COc1cc(-c2nc(C3CCN(C#N)C3)no2)nc2ccccc12` (stereo not drawn) [Example 58, 3-(5-(4-Methoxyquinolin-2-yl)-1,2,4-oxadiazol-3-yl)pyrrolidine-1-carbonitrile], for which the IC50 is 1000 to 10000 nM.

In the case of `N#CN1CCC(c2noc(-c3ccccc3OCc3ccccc3)n2)C1` (stereo not drawn) [Example 59, 3-(5-(2-(Benzyloxy)phenyl)-1,2,4-oxadiazol-3-yl)pyrrolidine-1-carbonitrile], the IC50 fell in the range of 1000 to 10000 nM.

`N#CN1CCC(c2noc(-c3ccc(Br)cc3)n2)C1` (stereo not drawn) [Example 60, 3-(5-(4-Bromophenyl)-1,2,4-oxadiazol-3-yl)pyrrolidine-1-carbonitrile]: the IC50 was 1000 to 10000 nM.

As a reminder, the IC50 is the concentration needed to halve the response being measured.
